Results from US20030134779A1, “Method and composition for treatment and/or prevention of antibiotic-resistant microorganism infections” (priority 2002, published 2003).

Columns and labels:
S. aureus PC-1 [1] = test: Bacterial growth in MHB; assay type: cell-based, Staphylococcus aureus; conditions: LF or LFC alone, sub-MIC
Protocol: (§1) The effect of LF or LFC at concentration sub-MICs alone or in combination with sub-MICs of antibiotics on bacterial growth rate of S. aureus, E. coli and K. pneumoniae was determined by monitoring bacterial cultures in MHB with the O.D.600 nm or by the count of colony forming unit per ml (cfu/ml). A volume of 2.5 ml of overnight cultures in MHB adjusted to 0.5-1 McFarland standard in saline were used to inoculate a final volume of 25 ml of fresh MHB containing the desired concentration of tested compounds. All flasks were then incubated at 37° C. with agitation (200 rpm) for 9 h. Aliquots were removed every hour to determine the culture turbidity using the spectrophotometer Philips PU 8800 (Pye Unican Ltd, Cambridge, UK). The combined antibiotic effect on bacterial growth was also determined using concentrations of LF in the presence of different concentrations of antibiotics. Briefly, a volume of 3 ml of fresh MHB containing desired concentration of drugs was adjusted to an optical density of 0.4 at 540 nm after an overnight culture. The culture was then incubated at 37° C with agitation (200 rpm). After incubation, aliquots were removed to determine the culture turbidity (OD540nm) or cfu/ml. To determine the influence of the level of iron on of the growth inhibition by the test compound, 5 μM of FeCl3 were added to the media.

S. aureus PC-1 [2] = test: Cell morphology by transmission electron microscopy; assay type: cell-based, Staphylococcus aureus
Protocol: Bacterial cells were grown overnight on MHA or MHB containing sub-MICs of penicillin G with or without LF or LFC. Microorganisms were prepared for transmission electron microscopy by fixation with glutaraldehyde followed by ferritin labelling. This method allows good- preservation of capsular material. Briefly, bacterial cells grown in the presence or absence of antibiotics were fixed in cacodylate buffer (0.1 M, pH 7.0) containing 5% (v/v) glutaraldehyde, for 2 h at 20° C. Fixed microorganims were suspended in cacodylate buffer and allowed to react with the polycationic ferritin (Sigma Chemicals, St-Louis, Mo.; final concentration 1.0 mg/ml) for 30 min at 20° C. The reaction was slowed down by 10-fold dilution with buffer, and the microorganisms were centrifuged and washed three times in cacodylate buffer. Bacterial cells were then immobilized in 4% (w/v) agar, washed 5 times in cacodylate buffer and post-fixed with 2% (w/v) osmium tetroxide for 2 h. Washings were repeated as above, and the samples dehydrated in a graded series of acetone washes. Samples were then washed twice in propylene oxide and embedded in Spurr low-viscosity resin. Thin sections were post-stained with uranyl acetate and lead citrate and examined with an electron microscope (Philips 201) at an accelerating voltage of 60 kV.
Bacterial cells of PC-1 (a constitutively high producing β-lactamase strain) were grown overnight in MHB containing 8 μg/ml of penicillin G, 16 μg/ml of LFC alone or in combination for 4-h at 37° C. with agitation at 150 rpm. Bacteria cell morphology was evaluated by transmission electron microscopy after fixation and ferritin labelling method as previously described.

[3] = test system: β-lactamase activity of S. aureus PC-1; test: β-lactamase activity, nitrocefin assay, bovine LF/LFC; assay type: cell-based; conditions: LF 1 mg/ml (P<0.05); LFC 32 or 64 μg/ml (P<0.001)
Protocol: The effects of sub-MICs of LF (1 mg/ml), LFC (32 and 64 μg/ml) alone or in combination with ampicillin (4μg/ml) or penicillin G (8 μg/ml) were evaluated on the β-lactamase activity of S. aureus strains SHY97-4320 and PC-1. The chromogenic cephalosporin nitrocefin (Becton Dickinson, Microbiology, Cockeysville, Md.) was used in a quantitative spectrophotometric assay. Bacterial cells were first exposed during 4 and 22-h to drugs in broth. The number of bacteria (cfu/ml) were determined and cells aliquots were centrifuged at each point in time. The pellets were suspended in 10 mM HEPES buffer (pH 7.4) to an OD415 nm of 1 for PC-1 and 2 for SHY97-4320. Nitrocefin (100 μM) was added to 100 μl of cells in a final volume of 1 ml. Hydrolysis was measured at 486 nm on spectrophotometer. β-lactamase activity was expressed as ΔO.D.486 nm/min and corrected for bacterial OD.

S. aureus strains = test: Disk diffusion susceptibility test and cefinase test; assay type: cell-based, Staphylococcus aureus; conditions: β-lactamase producing strains
Protocol: For quality control, disk diffusion susceptibility tests, as recommended by the National Committee for Clinical Laboratory Standard, were performed on all strains using standard disk of various antibiotics. After 18 h of incubation at 37° C., the diameter of the zone of complete inhibition of bacterial growth around each disk was measured. Isolates were categorized as sensitive or resistant for a given antibiotic using the recommended interpretative guidelines of the manufacturer.

E. coli SHY97-3923 = test: Bacterial growth in MHB; assay type: cell-based, Escherichia coli
Protocol: as §1

[4] = test system: Escherichia coli strain harboring TEM-12 beta-lactamase; conditions: cited from earlier work
[5] = test system: Escherichia coli strain harboring wild TEM-1 beta-lactamase; conditions: cited from earlier work
[6] = test system: Escherichia coli strain harboring TEM-10 beta-lactamase; conditions: cited from earlier work
[7] = test system: S. typhimurium strain DT 104; conditions: isolates with decreased fluoroquinolone sensitivity; cited from earlier work
S. aureus SHY97-3906 = test: Bacterial growth in MHB; assay type: cell-based, Staphylococcus aureus; conditions: combination of erythromycin and LF; 18-h of incubation
Protocol: as §1

K. pneumoniae SHY99-723 = test: Bacterial growth in MHB; assay type: cell-based, Klebsiella pneumoniae
Protocol: as §1

For `CC[C@H](C)[C@@H]1NC(=O)[C@H](CO)NC(=O)[C@@H]2CCCN2C(=O)[C@H](C)NC(=O)CNC(=O)[C@H](CC(C)C)NC(=O)[C@H](CCCCN)NC(=O)[C@H](CCCCN)NC(=O)[C@H](CCSC)NC(=O)[C@H](CCCNC(=N)N)NC(=O)[C@H](Cc2c[nH]c3ccccc23)NC(=O)[C@H](CCC(N)=O)NC(=O)[C@H](Cc2c[nH]c3ccccc23)NC(=O)[C@H](CCCNC(=N)N)NC(=O)[C@H](CCCNC(=N)N)NC(=O)[C@@H](NC(=O)[C@H](CCCCN)NC(=O)[C@@H](N)Cc2ccccc2)CSSC[C@@H](C(=O)N[C@H](C(=O)N[C@@H](CCCNC(=N)N)C(=O)N[C@@H](CCCNC(=N)N)C(=O)N[C@@H](C)C(=O)N[C@@H](Cc2ccccc2)C(=O)O)C(C)C)NC(=O)[C@H]([C@@H](C)O)NC1=O` [LFC], the growth (S. aureus PC-1 [1]) was “delayed growth”, the “mesosome structures arising from the septa and cell wall” value (S. aureus PC-1 [2]; LFC 16 μg/ml) was “induced formation of mesosome structures” and the bacterial lysis (S. aureus PC-1 [2]; LFC 16 μg/ml alone, 4-h) was “A large percentage of lysed bacteria”. For the same molecule, the “bacterial lysis by LFC” value (S. aureus PC-1 [2]; LFC 16 μg/ml in the presence of penicillin G 8 μg/ml) was “enhanced”, the “shape and size of cells” value (S. aureus PC-1 [2]; exposure to LF or LFC) was “affected the shape and the size” and the β-lactamase activity [3] was “strong”.
In the case of `CC1(C)S[C@@H]2[C@H](NC(=O)[C@H](N)c3ccccc3)C(=O)N2[C@H]1C(=O)O` [ampicillin], the “susceptibility by standard disk diffusion and cefinase test” value (S. aureus strains) is reported as “resistance”.
In the case of `Cc1nnc(SCC2=C(C(=O)O)N3C(=O)[C@@H](NC(=O)Cn4cnnn4)[C@H]3SC2)s1` [cefazolin], the growth (E. coli SHY97-3923; cefazolin alone (0.5 g)) is reported as “not able to reduce growth” and the growth (E. coli SHY97-3923; cefazolin with LFC) is reported as “completely inhibit bacterial growth”.
In the case of `CO/N=C(\C(=O)N[C@@H]1C(=O)N2C(C(=O)O)=C(COC(C)=O)CS[C@H]12)c1csc(N)n1` [cefotaxime], the “conventional MIC of cefotaxime” value [4] is given as 0.06 µg/mL, the MIC of cefotaxime [5] is given as 0.03 µg/mL and the MIC of cefotaxime [6] is given as 0.25 µg/mL.
In the case of `O=C(O)c1cn(C2CC2)c2cc(N3CCNCC3)c(F)cc2c1=O` [ciprofloxacin], the “MIC's of ciprofloxacin” value [7] is listed as 0.25 to 1.0 µg/mL.
With `CC[C@H]1OC(=O)[C@H](C)[C@@H](O[C@H]2C[C@@](C)(OC)[C@@H](O)[C@H](C)O2)[C@H](C)[C@@H](O[C@@H]2O[C@H](C)C[C@H](N(C)C)[C@H]2O)[C@](C)(O)C[C@@H](C)C(=O)[C@H](C)[C@@H](O)[C@]1(C)O` [erythromycin] the growth (S. aureus SHY97-3906) was “affected”.
For neomycin, the “effect of neomycin on bacterial growth” value (E. coli SHY97-3923; 16 μg/ml LFC (1/16 MIC) added) was “significantly enhanced”, the “effect of neomycin on bacterial growth” value (E. coli SHY97-3923; 1 mg/ml of LF added) was “significantly enhanced” and the “reduction of bacterial growth rate with neomycin” value (K. pneumoniae SHY99-723; 16 μg/ml LFC (1/16 MIC) added) was 2 times. For the same molecule, the “reduction of bacterial growth rate with neomycin” value (K. pneumoniae SHY99-723; 0.5 mg/ml of LF added) was 2 times.
